How the values were obtained:
[1] = test system: Therminator IX DNA polymerase; experiment: Polymerase extension reaction with 3′-O-modified reversible terminators, MALDI-TOF MS readout; format: biochemical; settings: extension reactions incl. 1:1 mixtures of two terminators, MALDI-TOF MS (FIGS. 23A-28C)
Description: The reaction was conducted in an ABI GeneAmp PCR System 9700 with initial incubation at 65° C. for 30 second, followed by 38 cycles of 65° C./30 sec, 45° C./30 sec, 65° C./30 sec. Multiple reactions were carried out and an aliquot of the reaction mixture was desalted using a C18 ZipTip column (Millipore, MA) and analyzed by MALDI-TOF MS (ABI Voyager DE). Polymerase extension reaction using 3'-O-SS-Rox-dATP for 5, 10, and 30 cycles. […] The reactions were conducted in an ABI GeneAmp PCR System 9700 with initial incubation at 65° C. for 30 second, followed by 5, 10, or 30 cycles of 65° C./30 sec, 45° C./30 sec, 65° C./30 sec. The reaction mixtures were desalted using Oligo Clean & ConcentratorTM (ZYMO Research) and analyzed by MALDI-TOF MS (ABI Voyager DE) and the results are shown in FIGS. 23A-23B. DNA template: [NT] ID NO:6). […] The reaction mixtures were desalted using Oligo Clean & ConcentratorTM (ZYMO Research) and analyzed by MALDI-TOF MS (ABI Voyager DE) the result is shown in FIG. 24. […] The reaction mixtures were desalted using Oligo Clean & ConcentratorTM (ZYMO Research) and analyzed by MALDI-TOF MS (ABI Voyager DE) the result is shown in FIGS. 25A-25C. […] The reaction mixtures were desalted using Oligo Clean & ConcentratorTM (ZYMO Research) and analyzed by MALDI-TOF MS (ABI Voyager DE) the result is shown in FIGS. 28A-28C. […]

DNA polymerase = test system: DNA polymerase
From the text: FIGS. 23A-23B. MALDI-TOF mass spectra of DNA extension products from polymerase reactions using 3′-O-Rox-SS-dATP for 5, 10, and 30 cycles.
FIGS. 25A-25C. MALDI-TOF mass spectrum of DNA extension products from polymerase reactions using a mixture of 3′-O-tButyl-SS-dATP and 3′-O-Rox-SS-dATP at a 1:1 ratio. […] FIG. 25B: 3′-O-tButyl-SS-dATP (M.W. 625). FIG. 25C: 3′-O-Rox-SS-dATP (M.W. 1157).
FIG. 26. MALDI-TOF mass spectrum of a DNA extension product from polymerase reaction using 3′-O-TCO-SS-dTTP.
FIGS. 27A-27B. MALDI-TOF mass spectrum of a DNA extension product from polymerase reaction using 3′-O-Biotin-dCTP.
FIGS. 28A-28C. MALDI-TOF mass spectrum of DNA extension products from polymerase reaction using with a mixture of 3′-O-Rox-SS-dATP and 3′-O-Rox-PEG4-SS-dATP at a 1:1 ratio.

In the case of `CC(C)(C)SSCO[C@H]1C[C@H](n2cnc3c(N)ncnc32)O[C@@H]1COP(=O)(O)OP(=O)(O)OP(=O)(O)O` [3′-O-tButyl-SS-dATP, 3′-O-t-Butyldithiomethyl(SS)-dATP], the “incorporation efficiency relative to another nucleotide analogue” value [1] is reported as “much higher efficiency than 3′-O-Rox-SS-dATP”, the extension (DNA polymerase; after 5 cycles of extension) is reported as “completed” and the “efficiency of incorporation by polymerase versus 3′-O-Rox-SS-dATP” value (DNA polymerase; mixture at a 1:1 ratio) is reported as “much higher efficiency”. For the same compound, the “height of the extension product peak versus that with 3′-O-Rox-SS-dATP” value (DNA polymerase; mixture at a 1:1 ratio, after 5 cycles) was “more than twice”.

Source: patent publication US12337009B2, “Nucleotide derivatives and methods of use thereof” (The Trustees of Columbia University in the City of New York, priority 2016, dated 2025)
